The source of these data is patent US11897867B2, “6-phenyl-4,5-dihydropyridazin-3(2H)-one derivatives as PDE3A and PDE3B inhibitors for treating cancer” (Bayer Aktiengesellschaft, priority 2017, dated 2024).

The test system of assay [1] is HeLa cells (cervical cancer). Put plainly: Cell proliferation measurement (Cell Titer Glo), HeLa. Particulars: Homo sapiens, 72 h treatment, read-out: Anti-proliferation IC50 HeLa (Cervical cancer). Format: cell-based. As for the experimental part:
(§1) The antiproliferative activity of the compounds of the general formula (I) was examined in vitro in human cancer cells. For this purpose, 1000 cells (or 500 HeLa cells) were plated in 384-well plates with appropriate growth medium and incubated at 37° C. overnight. After 24 h, the cells on the test plate were treated with the compounds of the general formula (I) as and incubated at 37° C. for 72 h. The compounds were added to the cells by means of an HP D300 digital dispenser in a 10 (or more)-step dilution series. As control, the cells were treated with vehicle (DMSO at 0.3% final concentration). After 72 h, the cells were treated with 20 μl/well of 50% CTG solution in PBS (Promega Cell Titer Glo (catalogue #G755B and G756B)) and incubated at room temperature for 10 min, and luminescence was measured by means of a VICTOR V (Perkin Elmer), in order to determine cell viability at the end of treatment. The percentage effect on cell growth and the IC50 derived therefrom were determined for each test substance using the values from untreated wells (=percent viability). The IC50 values were calculated using a 4-parameter fit.
A general note: ATP-based viability assays read luminescence as a measure of living cells.

The test system of a further assay is SK-MEL-3 (melanoma). Put plainly: Cell proliferation measurement (Cell Titer Glo), SK-MEL-3. The class given is cell-based. To be noted: Homo sapiens, SK-MEL3, SK-MEL-3 cells, 72 h treatment, read-out: Anti-proliferation IC50 SK-MEL-3 (melanoma). As for the experimental part:
as §1

For another assay, the target named is T1, human full length PDE3A (Homo sapiens, UniProt Q14432).
T1 construct: Sf9 cells overexpressing human full length PDE3A; purchased SB Drug Discovery, UK; host or cells: Sf9 cells (cell extract)
Put plainly: PDE3A enzyme inhibition (3H-cAMP Scintillation Proximity Assay). The class given is biochemical. To be noted: PDE3A cell extract from Sf9 cells, 60 min room temperature; read-out: Target IC50 PDE3A IC50. Here is the method:
(§2) The commercially available 3H-cAMP Scintillation Proximity Assay (SPA, Perkin Elmer) system was used for enzyme inhibition studies. For the determination of the in vitro effect of test substances on the PDE3A reactions 2 μl of the respective test compound solution in DMSO (serial dilutions) were is placed in wells of microtiter plates (Isoplate-96/200W; Perkin Elmer). 50 μl of a dilution of PDE3A cell extract from Sf9 cells overexpressing human full length PDE3A (SB Drug Discovery, UK) in buffer A (50 mM Tris/HCl pH 7.5, 8.3 mM MgCl2, 1.7 mM EDTA, 0.2% BSA) was added. The dilution of the PDE3A cell extract was chosen such that the reaction kinetics was linear and less than 70% of the substrate was consumed (typical dilution 1:5000). The reaction was started by addition of 50 μl (0.025 μCi) of 1:2000 in buffer A w/o BSA diluted substrate [8-3H] adenosine 3′,5′-cyclic phosphate (1 μCi/μl; Perkin Elmer). After incubation at room temperature for 60 min, the reaction was stopped by addition of 25 μl of a suspension containing 18 mg/ml yttrium scintillation proximity beads (Perkin Elmer) in water. The microtiter plates were sealed and measured in a Microbeta scintillation counter (PerkinElmer Wallac). IC50 values were determined from sigmoidal curves by plotting percentage PDE3A activity vs log compound concentration.
On the technique in general: SPA uses beads or plates that emit light when radiolabelled molecules are held near them.

The next assay concerns the target T2, human full length PDE3B (Homo sapiens, UniProt Q13370).
T2 construct: Sf9 cells overexpressing human full length PDE3B; purchased SB Drug Discovery, UK; host or cells: Sf9 cells (cell extract)
Put plainly: PDE3B enzyme inhibition (3H-cAMP Scintillation Proximity Assay). Format: biochemical. Particulars: PDE3B cell extract from Sf9 cells, 60 min room temperature; read-out: Target IC50 PDE3B IC50. Here is the method:
as §2, with “PDE3B” for “PDE3A”, “were” for “were is”, “1:6000).” for “1:5000).”

Structures are written as SMILES.

T2 sequence (Q13370 whole entry): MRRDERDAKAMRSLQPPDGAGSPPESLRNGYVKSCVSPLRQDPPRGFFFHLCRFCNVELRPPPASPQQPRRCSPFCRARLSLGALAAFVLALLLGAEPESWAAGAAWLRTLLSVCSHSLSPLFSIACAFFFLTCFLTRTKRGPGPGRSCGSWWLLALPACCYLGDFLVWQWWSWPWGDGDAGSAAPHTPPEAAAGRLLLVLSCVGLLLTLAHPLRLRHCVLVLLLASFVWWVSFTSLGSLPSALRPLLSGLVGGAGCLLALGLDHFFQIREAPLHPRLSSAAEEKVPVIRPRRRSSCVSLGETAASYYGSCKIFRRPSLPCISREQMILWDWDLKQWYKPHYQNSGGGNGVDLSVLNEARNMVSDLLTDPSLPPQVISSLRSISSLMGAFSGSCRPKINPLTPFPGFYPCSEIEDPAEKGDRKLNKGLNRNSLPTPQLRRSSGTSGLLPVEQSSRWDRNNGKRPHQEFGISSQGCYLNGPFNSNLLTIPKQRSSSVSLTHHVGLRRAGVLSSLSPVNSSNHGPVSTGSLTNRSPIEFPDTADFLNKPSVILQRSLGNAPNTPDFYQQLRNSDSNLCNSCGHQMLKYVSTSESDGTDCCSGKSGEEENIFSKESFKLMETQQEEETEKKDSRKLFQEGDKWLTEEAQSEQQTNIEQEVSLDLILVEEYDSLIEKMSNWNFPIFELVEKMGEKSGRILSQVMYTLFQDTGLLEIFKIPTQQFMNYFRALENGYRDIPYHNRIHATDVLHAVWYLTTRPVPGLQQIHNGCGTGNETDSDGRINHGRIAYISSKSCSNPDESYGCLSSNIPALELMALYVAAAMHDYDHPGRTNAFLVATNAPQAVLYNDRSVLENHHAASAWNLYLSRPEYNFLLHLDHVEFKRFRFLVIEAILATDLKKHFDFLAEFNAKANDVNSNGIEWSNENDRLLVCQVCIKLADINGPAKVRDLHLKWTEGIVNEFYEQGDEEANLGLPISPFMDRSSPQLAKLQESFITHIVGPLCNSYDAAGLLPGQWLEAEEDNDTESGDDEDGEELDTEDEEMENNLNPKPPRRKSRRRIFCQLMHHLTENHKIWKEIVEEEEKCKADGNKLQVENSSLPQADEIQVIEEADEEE
T1 sequence (Q14432 whole entry): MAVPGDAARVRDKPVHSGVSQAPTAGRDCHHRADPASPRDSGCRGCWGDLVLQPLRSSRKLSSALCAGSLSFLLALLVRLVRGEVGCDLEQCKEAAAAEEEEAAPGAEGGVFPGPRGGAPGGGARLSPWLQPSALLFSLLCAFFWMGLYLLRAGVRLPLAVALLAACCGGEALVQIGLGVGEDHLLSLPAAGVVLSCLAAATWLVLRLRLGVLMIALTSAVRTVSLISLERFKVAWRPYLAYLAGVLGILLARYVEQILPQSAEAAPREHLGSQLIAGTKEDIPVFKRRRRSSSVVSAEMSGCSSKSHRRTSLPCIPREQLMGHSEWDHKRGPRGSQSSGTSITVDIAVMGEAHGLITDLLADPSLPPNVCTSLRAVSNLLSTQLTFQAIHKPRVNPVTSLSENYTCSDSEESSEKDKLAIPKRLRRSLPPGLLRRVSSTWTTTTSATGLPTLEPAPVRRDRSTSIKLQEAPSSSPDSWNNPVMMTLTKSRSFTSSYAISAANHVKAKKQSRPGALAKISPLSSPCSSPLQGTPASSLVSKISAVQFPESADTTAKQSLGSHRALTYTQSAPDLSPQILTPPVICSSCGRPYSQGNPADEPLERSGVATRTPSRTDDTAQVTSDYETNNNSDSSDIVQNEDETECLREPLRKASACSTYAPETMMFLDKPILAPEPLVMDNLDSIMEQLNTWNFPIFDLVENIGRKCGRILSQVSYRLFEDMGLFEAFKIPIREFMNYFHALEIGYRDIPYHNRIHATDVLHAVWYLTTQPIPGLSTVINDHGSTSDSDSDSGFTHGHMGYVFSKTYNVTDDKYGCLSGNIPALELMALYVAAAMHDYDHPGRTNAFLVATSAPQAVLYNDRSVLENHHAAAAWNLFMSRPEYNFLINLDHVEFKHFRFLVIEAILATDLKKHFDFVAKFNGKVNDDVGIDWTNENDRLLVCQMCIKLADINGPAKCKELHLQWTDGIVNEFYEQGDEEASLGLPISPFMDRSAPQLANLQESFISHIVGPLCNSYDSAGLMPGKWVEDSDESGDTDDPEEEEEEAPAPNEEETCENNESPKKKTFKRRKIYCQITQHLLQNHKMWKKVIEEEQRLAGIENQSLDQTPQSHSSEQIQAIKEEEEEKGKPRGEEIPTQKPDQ

In the case of `O=C1CCC(c2ccc(C3=CCOCC3)cc2)=NN1` [Example 1, 6-[4-(3,6-Dihydro-2H-pyran-4-yl)phenyl]-4,5-dihydropyridazin-3(2H)-one], the IC50 was 30.9 nM in assay [1], > 100 nM in the assay on SK-MEL-3 (melanoma), 470 nM on human full length PDE3A and 290 nM on human full length PDE3B.

`Cc1cc(C2=NNC(=O)CC2)ccc1-c1cccnc1` [Example 2, 6-[3-Methyl-4-(pyridin-3-yl)phenyl]-4,5-dihydropyridazin-3(2H)-one]: the IC50 in assay [1] is 5.72 nM; in the assay on SK-MEL-3 (melanoma), 14.5 nM; at human full length PDE3A, 65 nM; on human full length PDE3B, 67 nM.

With `Cc1cc(F)ccc1-c1ccc(C2=NNC(=O)CC2)cc1C` [Example 4, 6-(4′-Fluoro-2,2′-dimethylbiphenyl-4-yl)-4,5-dihydropyridazin-3(2H)-one], the IC50 in assay [1] is 12.5 nM; in the assay on SK-MEL-3 (melanoma), 22.8 nM; at human full length PDE3A it was 420 nM; at human full length PDE3B, 160 nM.

`Cc1cc(C2=NNC(=O)CC2)ccc1-c1ccncc1` [Example 5, 6-[3-Methyl-4-(pyridin-4-yl)phenyl]-4,5-dihydropyridazin-3(2H)-one]: the IC50 is 21.3 nM in assay [1], 65.7 nM in the assay on SK-MEL-3 (melanoma), 120 nM at human full length PDE3A and 39 nM on human full length PDE3B.

For `Cc1cc(C2=NNC(=O)CC2)ccc1-c1cn[nH]c1` [Example 6, 6-[3-Methyl-4-(1H-pyrazol-4-yl)phenyl]-4,5-dihydropyridazin-3(2H)-one], the IC50 came to 53.3 nM in assay [1], 89.3 nM in the assay with SK-MEL-3 (melanoma), 72 nM on human full length PDE3A and 87 nM at human full length PDE3B.

`Cc1cc(C2=NNC(=O)CC2)ccc1C1=CCOCC1` [Example 7, 6-[4-(3,6-Dihydro-2H-pyran-4-yl)-3-methylphenyl]-4,5-dihydropyridazin-3(2H)-one]: the IC50 in assay [1] was 55.6 nM; in the assay on SK-MEL-3 (melanoma), > 100 nM; on human full length PDE3A, 200 nM; on human full length PDE3B it was 35 nM.

As for `O=C1CCC(c2ccc(-c3ccc(F)cc3)c(F)c2)=NN1` [Example 8, 6-(2,4′-Difluorobiphenyl-4-yl)-4,5-dihydropyridazin-3(2H)-one], the IC50 stood at 1.27 nM in assay [1], 5.01 nM in the assay with SK-MEL-3 (melanoma), 90 nM at human full length PDE3A and 49 nM at human full length PDE3B.

Take `Nc1cc(-c2ccc(C3=NNC(=O)CC3)cc2F)ccc1Cl` [Example 9, 6-(3′-Amino-4′-chloro-2-fluorobiphenyl-4-yl)-4,5-dihydropyridazin-3(2H)-one]: the IC50 in assay [1] was found to be 1.55 nM; with SK-MEL-3 (melanoma), 2.12 nM; on human full length PDE3A, 90 nM; at human full length PDE3B it was 35 nM.

For the compound `COc1ccc(C2=NNC(=O)CC2)cc1Cl` [Example 10, 6-(3-Chloro-4-methoxyphenyl)-4,5-dihydropyridazin-3(2H)-one], the IC50 was 31.8 nM in assay [1], 40.2 nM in the assay on SK-MEL-3 (melanoma), 110 nM at human full length PDE3A and 110 nM at human full length PDE3B.

As to `Cc1cc(C2=NNC(=O)CC2)ccc1Cl` [Example 11, 6-(4-Chloro-3-methylphenyl)-4,5-dihydropyridazin-3(2H)-one], the IC50 in assay [1] was determined as 41.4 nM; in the assay with SK-MEL-3 (melanoma), 70.3 nM; at human full length PDE3A, 660 nM; on human full length PDE3B it was 710 nM.

For the compound `O=C1CCC(c2cc(F)c(N3CCC(F)(F)CC3)c(F)c2)=NN1` [Example 12, 6-[4-(4,4-Difluoropiperidin-1-yl)-3,5-difluorophenyl]-4,5-dihydropyridazin-3(2H)-one], the IC50 was determined as 5.48 nM in assay [1], 11.4 nM with SK-MEL-3 (melanoma), 110 nM at human full length PDE3A and 62 nM on human full length PDE3B.

For the compound `N#Cc1cc(C2=NNC(=O)CC2)ccc1N1CCOCC1` [Example 15, 2-(Morpholin-4-yl)-5-(6-oxo-1,4,5,6-tetrahydropyridazin-3-yl)benzonitrile], the IC50 amounted to 44.8 nM in assay [1], 69.5 nM in the assay with SK-MEL-3 (melanoma), 110 nM on human full length PDE3A and 77 nM on human full length PDE3B.

Consider `O=C1CCC(c2cc(F)c(N3CCCCC3)c(F)c2)=NN1` [Example 16, 6-[3,5-Difluoro-4-(piperidin-1-yl)phenyl]-4,5-dihydropyridazin-3(2H)-one], for which the IC50 was 4.86 nM in assay [1], 9.8 nM in the assay with SK-MEL-3 (melanoma), 405 nM on human full length PDE3A and 128 nM at human full length PDE3B.

`CC1C2CC2CN1c1c(F)cc(C2=NNC(=O)CC2)cc1F` (stereo not drawn) [Example 17, 6-{3,5-Difluoro-4-[2-methyl-3-azabicyclo[3.1.0]hex-3-yl]phenyl}-4,5-dihydropyridazin-3(2H)-one]: the IC50 in assay [1] is 1.29 nM; with SK-MEL-3 (melanoma), 2.99 nM; at human full length PDE3A, 200 nM; at human full length PDE3B it was 89 nM.

In the case of `CCNc1ccc(C2=NNC(=O)CC2)cc1C(F)(F)F` [Example 18, 6-[4-(Ethylamino)-3-(trifluoromethyl)phenyl]-4,5-dihydropyridazin-3(2H)-one], the IC50 in assay [1] came to 5.39 nM; in the assay with SK-MEL-3 (melanoma), 10.5 nM; at human full length PDE3A, 66 nM; at human full length PDE3B it was 73 nM.

In the case of `O=C1CCC(c2ccc(N3CC(F)(F)C3)c(C(F)(F)F)c2)=NN1` [Example 19, 6-[4-(3,3-Difluoroazetidin-1-yl)-3-(trifluoromethyl)phenyl]-4,5-dihydropyridazin-3(2H)-one], the IC50 in assay [1] is 5.76 nM; with SK-MEL-3 (melanoma), 10.4 nM; on human full length PDE3A, 210 nM; on human full length PDE3B, 210 nM.

Turning to `CC1CCCN1c1ccc(C2=NNC(=O)CC2)cc1C(F)(F)F` (stereo not drawn) [Example 20, 6-{4-[2-Methylpyrrolidin-1-yl]-3-(trifluoromethyl)phenyl}-4,5-dihydropyridazin-3(2H)-one], the IC50 in assay [1] turned out to be 33.5 nM; in the assay on SK-MEL-3 (melanoma), 47.7 nM; on human full length PDE3A it was 220 nM; at human full length PDE3B, 160 nM.

With `O=C1CCC(c2ccc(N3CC4CC(C3)C4(F)F)c(C(F)(F)F)c2)=NN1` [Example 21, 6-[4-(6,6-Difluoro-3-azabicyclo[3.1.1]hept-3-yl)-3-(trifluoromethyl)phenyl]-4,5-dihydropyridazin-3(2H)-one], the IC50 is 2.87 nM in assay [1], 5.82 nM in the assay on SK-MEL-3 (melanoma), 82 nM on human full length PDE3A and 50 nM on human full length PDE3B.

As for `CNc1ccc(C2=NNC(=O)CC2)cc1C(F)(F)F` [Example 23, 6-[4-(Methylamino)-3-(trifluoromethyl)phenyl]-4,5-dihydropyridazin-3(2H)-one], the IC50 in assay [1] came to 58 nM; with SK-MEL-3 (melanoma) it was 67.6 nM; at human full length PDE3A, 450 nM; on human full length PDE3B, 470 nM.

For `O=C1CCC(c2ccc(-c3ccccc3C(F)(F)F)c(F)c2)=NN1` [Example 61, 6-[2-fluoro-2′-(trifluoromethyl)[1,1′-biphenyl]-4-yl]-4,5-dihydropyridazin-3(2H)-one], the IC50 in assay [1] turned out to be 19.5 nM; in the assay with SK-MEL-3 (melanoma), 37.6 nM.
